Patent publication US20250243560A1, “METAL EXTRACTANT AND SEPARATION RECOVERY METHOD OF METAL IONS USING METAL EXTRACTANT” (FUJIFILM Corporation, priority 2022, published 2025)
Read-outs that look alike come from different tables or passages of the source.

Key:
[1] = Acid dissociation constant pKa by neutralization titration; format: physicochemical; details: for metal extractant II pKa of a conjugate acid
Excerpt: An acid dissociation constant pKa of the metal extractant is not particularly limited, and an appropriate value for the kind, the number, and the like of the coordinating functional groups can be adopted. In the present invention, the pKa is a value measured by neutralization titration.
In the present invention, the pKa is a value measured by neutralization titration.
Regarding the synthesized or prepared metal extractant, the molecular weight and the pKa calculated using the above-described method are shown in Table 1-2.

[2] = Separation recovery method I, water phase W1 (Co, Ni sulfates) mixed with kerosine oil phase of the metal extractant; details: maximum amount of metal ions extracted / total amount of the other metal ions extracted, mixing amount 0.5 equivalent
Procedure: 95.4 g of cobalt (II) sulfate heptahydrate (manufactured by FUJIFILM Wako Pure Chemicals Corporation) and 95.7 g of nickel (II) sulfate heptahydrate (manufactured by FUJIFILM Wako Pure Chemicals Corporation) were added to a 1L measuring flask, were diluted with ultrapure water, and were stirred and dissolved at 30° C. As a result, a metal ion-containing aqueous solution (W1) including two kinds of metal ions was prepared.
(§1) 12 mL of the extractant (Y1) with respect to 10 mL of the prepared metal ion-containing aqueous solution (W1) was added to a 30 mL vial tube, and the mixture was stirred using a stirrer tip at 25° C. for 30 minutes. In this case, the mixing amount (unit: equivalent) of the metal extractant with respect to the total content of metal ions to be coordinated (that have the same definition as the extracted metal ions; in Example 1, Co and Ni) was 0.5. Next, a 10 M sodium hydroxide aqueous solution or a 10 M hydrochloric acid was added to adjust the pH of the mixed solution to a value shown in the column “pH during Mixing” of Table 1-2. Further, the solution was stirred at 25° C. for 30 minutes, and was left to stand at the same temperature for 1 hour. After verifying that the solution was separated into two layers of the organic phase (oil phase) and the water phase, the separated water phase was extracted, and the separation and recovery of the metal ions was performed. The metal ions extracted in Example 1 and the metal ions extracted in the maximum amount are shown in the column “Kind” and the column “Maximum Amount Extracted” of the column “Extracted Metal Ions” in Table 1-2, respectively.
(§2) Separation and recovery of metal ions according to Examples 2 to 4 and 8 and Comparative Examples 1 to 6 and 9 were performed using the same method as that of Example 1, except that the metal ion-containing aqueous solution and the metal extractant solution were changed to a combination shown in Table 1-1 and Table 1-2 (hereinafter, both of which are referred to as Table 1″), the pH during the mixing of the water phase and the oil phase was set to a value shown in the column “pH during Mixing” of Table 1-2, and the mixing amount (unit: equivalent) of the metal extractant with respect to the total content of metal ions to be coordinated was set to a value shown in the column “Mixing Amount” of Table 1-2 for mixing and standing. The metal ions extracted in each of Examples and the metal ions extracted in the maximum amount are shown in the column “Kind” and the column “Maximum Amount Extracted” of the column “Extracted Metal Ions” in Table 1-2, respectively.
Regarding each of the water phases used in Examples and Comparative Examples and the water phases after the extraction, the pH was measured using a pH meter (SK-620 pH II, manufactured by SATOTECH), and each of the contents of dissolved metal ions was determined using an inductively coupled plasma-optical emission spectrometer (ICP-OES) (Optima 7300 D (trade name), manufactured by Perkin Elmer Co., Ltd.). Measured values of the pH of each of the water phases used in Examples and Comparative Examples and the content of dissolved metal ions in each of the water phases are shown in the column “Water Phase pH” of Table 1-2 and the column “Metal Ion Concentration (ppm)” of Table 1-1. The maximum amount (ppm) of the metal ions extracted measured as described above was divided by the total amount (ppm) of the other metal ions extracted to calculate a ratio between the amounts thereof extracted. […]

[3] = Separation recovery method II, water phase W4 (Co, Ni sulfates with lithium chloride) mixed with kerosine oil phase of the metal extractant; details: for Selection Ratio: W4, maximum amount of metal ions extracted / total amount of the other metal ions extracted, mixing amount 0.5 equivalent
Procedure: 200 g of lithium chloride (manufactured by FUJIFILM Wako Pure Chemical Corporation), 95.4 g of cobalt (II) sulfate heptahydrate (manufactured by FUJIFILM Wako Pure Chemicals Corporation), and 95.7 g of nickel (II) sulfate heptahydrate (manufactured by FUJIFILM Wako Pure Chemicals Corporation) were added to a 1L measuring flask, were diluted with ultrapure water, and were stirred and dissolved at 30° C. As a result, a metal ion-containing aqueous solution (W4) including two kinds of metal ions was prepared. In this aqueous solution, in the two kinds of metal ions (cobalt and nickel), complex ions to which halide ions were coordinated were formed.
12 mL of the extractant (Y3) with respect to 10 mL of the prepared metal ion-containing aqueous solution (W4) was added to a 30 mL vial tube, and the mixture was stirred using a stirrer tip at 25° C. for 30 minutes. In this case, the mixing amount (unit: equivalent) of the metal extractant to the total content of the metal ions was 0.5. Next, a 10 M sodium hydroxide aqueous solution or a 10 M hydrochloric acid was added to adjust the pH of the mixed solution to a value shown in the column “pH during Mixing” of Table 1-2. Further, the solution was stirred at 25° C. for 30 minutes, and was left to stand at the same temperature for 1 hour. After verifying that the solution was separated into two layers of the organic phase (oil phase) and the water phase, the separated water phase was extracted, and the separation and recovery of the metal ions was performed. The metal ions extracted in Example 5 and the metal ions extracted in the maximum amount are shown in the column “Kind” and the column “Maximum Amount Extracted” of the column “Extracted Metal Ions” in Table 1-2, respectively.
The separation and recovery of the metal ions according to Examples 6 and 7 and Comparative Examples 7 and 8 was performed using the same method as that of Example 5, except that the metal ion-containing aqueous solution and the extractant solution were changed to a combination shown in Table 1-2, and the pH during the mixing of the water phase and the oil phase was set to a value shown in the column “pH during Mixing” of Table 1 for mixing and standing. The metal ions extracted in each of Examples and the metal ions extracted in the maximum amount are shown in the column “Kind” and the column “Maximum Amount Extracted” of the column “Extracted Metal Ions” in Table 1-2, respectively.
(§3) Regarding each of the water phases used in Examples and Comparative Examples and the water phases after the extraction, the pH was measured using a pH meter (SK-620 pH II, manufactured by SATOTECH), and each of the contents of dissolved metal ions was determined using an inductively coupled plasma-optical emission spectrometer (ICP-OES) (Optima 7300 D (trade name), manufactured by Perkin Elmer Co., Ltd.). Measured values of the pH of each of the water phases used in Examples and Comparative Examples and the content of dissolved metal ions in each of the water phases are shown in the column “Water Phase pH” of Table 1-2 and the column “Metal Ion Concentration (ppm)” of Table 1-1. The maximum amount (ppm) of the metal ions extracted measured as described above was divided by the total amount (ppm) of the other metal ions extracted to calculate a ratio between the amounts thereof extracted. The result is shown in the column “Selection Ratio” of Table 1-2.

[4] = Separation recovery method I, water phase W2 (Mn, Co, Ni sulfates) mixed with kerosine oil phase of the metal extractant; details: for Selection Ratio: W2, maximum amount of metal ions extracted / total amount of the other metal ions extracted, mixing amount 0.4 equivalent
Procedure: (§4) In addition, each of sulfates of a combination of metal ions shown in Table 1-1 was dissolved in ultrapure water to prepare each of metal ion-containing aqueous solutions (W2) and (W3) including two or three kinds of metal ions.
as §1, §2, §3

[5] = room temperature, concentration 310 mM
Procedure: Each of the synthesized or prepared metal extractants was added to a 100 mL measuring flask, and was diluted using kerosine (manufactured by FUJIFILM Wako Pure Chemicals Corporation) at room temperature. As a result, metal extractant solutions (Y1) to (Y6) and (Ycl) to (Yc9) (concentration: 310 mM) including the metal extractants were prepared, respectively.

[6] = Separation recovery method I, water phase W3 (Zr, Rh sulfates) mixed with kerosine oil phase of the metal extractant; details: maximum amount of metal ions extracted / total amount of the other metal ions extracted, mixing amount 0.7 equivalent
Procedure: as §4
12 mL of the extractant (Y1) with respect to 10 mL of the prepared metal ion-containing aqueous solution (W1) was added to a 30 mL vial tube, and the mixture was stirred using a stirrer tip at 25° C. for 30 minutes. In this case, the mixing amount (unit: equivalent) of the metal extractant with respect to the total content of metal ions to be coordinated (that have the same definition as the extracted metal ions; in Example 1, Co and Ni) was 0.5. […]
Regarding each of the water phases used in Examples and Comparative Examples and the water phases after the extraction, the pH was measured using a pH meter (SK-620 pH II, manufactured by SATOTECH), and each of the contents of dissolved metal ions was determined using an inductively coupled plasma-optical emission spectrometer (ICP-OES) (Optima 7300 D (trade name), manufactured by Perkin Elmer Co., Ltd.). Measured values of the pH of each of the water phases used in Examples and Comparative Examples and the content of dissolved metal ions in each of the water phases are shown in the column “Water Phase pH” of Table 1-2 and the column “Metal Ion Concentration (ppm)” of Table 1-1. […]

| Compound | pKa ([1]; read-out: pKa) | Selection Ratio [2] | Selection Ratio [3] | Selection Ratio [4] | other results |
| --- | --- | --- | --- | --- | --- |
| CCCCC(CC)CC(C(=O)O)N(CCC(C)SC)CCN(CCC(C)SC)C(CC(CC)CCCC)C(=O)O (stereo not drawn) [T-5] | 6.1 | 1.2 | – | – | – |
| CCCCC(CC)COCCOCC(CC)CCCC (stereo not drawn) [T-4] | 13.4 | – | 1.5 | – | amount of the metal ions extracted in the maximum amount ([3]; W4, in words): not sufficient |
| O=C(O)CN(CCN(CC(=O)O)CC(=O)O)CC(=O)O [EDTA, ethylenediaminetetraacetic acid] | 0.9 | – | – | – | extraction of metal ions to the oil phase ([4]; W2, in words): not able to be extracted; dissolution in kerosine [5]: not able to be dissolved in kerosine |
| CCCCC(CC)CN(CC(CC)CCCC)CC(CC)CCCC (stereo not drawn) [Tris-2-EHA, tris(2-ethylhexyl)amine] | 5.2 | – | 1.5 | – | – |
| CCCCC(CC)CN(CC(CC)CCCC)CC1CCC(CN(CC(CC)CCCC)CC(CC)CCCC)CC1 (stereo not drawn) [E-5] | 11.5 | – | 4.0 | – | – |
| CCCCC(CC)COP(=O)(O)CC(CC)CCCC (stereo not drawn) [PC-88A, mono-2-ethylhexyl(2-Ethylhexyl)phosphonate] | – | – | – | 1.4 | selectivity of the Mn ions extracted in the maximum amount ([4]; W2, in words): low |
| CCCCC(CC)CC(C(=O)O)N(CCN(CC(CC)CCCC)C(CC(CC)CCCC)C(=O)O)CC(CC)CCCC (stereo not drawn) [E-1] | 6.1 | 10 | – | 20 | Selection Ratio [6]: 6.7 |
| CCCCC(CC)CN(CC(CC)CCCC)C(=O)CN(CCN(CC(=O)O)CC(=O)N(CC(CC)CCCC)CC(CC)CCCC)CC(=O)O (stereo not drawn) [T-1] | 6 | – | – | 0.5 | selectivity of the Mn ions extracted in the maximum amount ([4]; W2, in words): low |
| CCCCC(CC)CN(CCN(CC(CC)CCCC)CC(CC)CCCC)CC(CC)CCCC (stereo not drawn) [E-3] | 11.1 | – | 5.0 | – | – |
| CCCCC(CC)CN(CCN(CC(CC)CCCC)C(CCCOCCOC)C(=O)O)C(CCCOCCOC)C(=O)O (stereo not drawn) [E-6] | 6.2 | 5.0 | – | – | – |
| Versatic acid 10 [VA-10] | – | – | – | 0.7 | pKa [1]: 7.9; selectivity of the Mn ions extracted in the maximum amount ([4]; W2, in words): low |
| CCCCC(CC)CC(OCCOC(CC(CC)CCCC)C(=O)O)C(=O)O (stereo not drawn) [T-3] | 5.8 | 1.1 | – | – | – |
| CCCCCCCCCN(CCCCCCCCC)CCN(CCCCCCCCC)CCCCCCCCC [E-4] | 11.4 | – | 3.3 | – | – |
| CCCCC(CC)CN(CC(CC)CCCC)C(=O)CNCC(=O)O (stereo not drawn) [T-2] | 5.2 | – | – | 0.6 | – |
| CCCCC(CC)CCC(C(=O)O)N(CCN(CC(CC)CCCC)C(CCC(CC)CCCC)C(=O)O)CC(CC)CCCC (stereo not drawn) [E-2] | 6.3 | 4.0 | – | – | – |
